# Test results reported in patent US20200399264A1, “4-SUBSTITUTED-2-THIAZOLE AMIDES AS ANTIVIRAL AGENTS” (Southern Research Institute, priority 2019, published 2020).
# Assays:
# [1] = tested on: CHIKV; assay: antiviral activity against CHIKV (VTR and EC90); type: cell-based; conditions: Chikungunya virus; for log reduction at 10 µM: read-out: VTR @ 10 μM (logs)
# From the text: As used herein, “EC90,” is intended to refer to the concentration of a substance (e.g., a compound or a drug) that is required for 90% agonism of a biological process, or component of a process, including a protein, subunit, organelle, ribonucleoprotein, etc. In one aspect, an EC90 can refer to the concentration of a substance that is required for 90% agonism in vivo, as further defined elsewhere herein. In a further aspect, […].
# [2] = cell cytotoxicity in a cell viability assay (CC50); type: cell-based; conditions: concentration required for 50% cell survival
# From the text: As used herein, “CC50,” is intended to refer to the cell cytotoxicity to the concentration of a substance (e.g., a compound or a drug) that is required for 50% cell survival in a cell viability assay in vitro.
SMILES,EC90 [1],log reduction at 10 µM [1],CC50 [2]
"CC(C)(C#N)c1ccc(C(=O)Nc2nc(-c3cccc(Nc4ccc(C#N)cc4)c3)cs2)cc1 [Compound 44, N-(4-(3-((4-cyanophenyl)amino)phenyl)thiazol-2-yl)-4-(2-cyanopropan-2-yl)benzamide]",0.98 µM,2.65,> 40 µM
"CSc1ncccc1C(=O)Nc1nc(-c2cccc(Nc3ccc(C#N)cc3)c2)cs1 [Compound 37, N-(4-(3-((4-Cyanophenyl)amino)phenyl)thiazol-2-yl)-2-(methylthio)nicotinamide]",0.45 µM,8.68,> 40 µM
"CSc1ncccc1C(=O)Nc1nc(-c2cccc(Nc3ccccc3C#N)c2)cs1 [Compound 39, N-(4-(3-((2-Cyanophenyl)amino)phenyl)thiazol-2-yl)-2-(methylthio)nicotinamide]",0.5 µM,5.23,> 40 µM
"CSc1ncccc1C(=O)Nc1nc(-c2cc(Cl)cc(Nc3ccc(C#N)cc3)c2)cs1 [Compound 49, N-(4-(3-chloro-5-((4-cyanophenyl)amino)phenyl)thiazol-2-yl)-2-(methylthio)nicotinamide]",0.21 µM,5.84,> 40 µM
"CC(C)(C)c1ccc(C(=O)Nc2nc(-c3cccc(Nc4ccc(C#N)cc4)c3)cs2)nc1 [Compound 41, 5-(Tert-Butyl)-N-(4-(3-((4-cyanophenyl)amino)phenyl)thiazol-2-yl)picolinamide]",> 10 µM,0.82,> 40 µM
"CSc1ncccc1C(=O)Nc1nc(-c2cccc(-c3ccc(C#N)cn3)c2)cs1 [Compound 14, N-(4-(3-(5-Cyanopyridin-2-yl)phenyl)thiazol-2-yl)-2-(methylthio)nicotinamide]",0.62 µM,6,> 40 µM
"CSc1ncccc1C(=O)Nc1nc(-c2cccc(-c3ccc(F)nc3)c2)cs1 [Compound 16, N-(4-(3-(6-Fluoropyridin-3-yl)phenyl)thiazol-2-yl)-2-(methylthio)nicotinamide]",0.33 µM,6.09,> 30 µM
"CSc1ncccc1C(=O)Nc1nc(-c2cc(C(=O)O)cc(-c3ccc(C#N)cc3)c2)cs1 [Compound 21, 4′-cyano-5-(2-(2-(methylthio)nicotinamido)thiazol-4-yl)-[1,1′-biphenyl]-3-carboxylic Acid]",,< 1,> 40 µM
"COc1cc(Nc2cccc(-c3csc(NC(=O)c4cccnc4SC)n3)c2)ccc1C#N [Compound 46, N-(4-(3-((4-yano-3-methoxyphenyl)amino)phenyl)thiazol-2-yl)-2-(methylthio)nicotinamide]",0.34 µM,5.06,> 40 µM
"CSc1ncccc1C(=O)Nc1nc(-c2cccc(N3CCN(S(C)(=O)=O)CC3)c2)cs1 [Compound 33, N-(4-(3-(4-(methylsulfonyl)piperazin-1-yl)phenyl)thiazol-2-yl)-2-(methylthio)nicotinamide]",,2.04,> 40 µM
"COc1ccc(-c2ccc(C#N)cc2)cc1-c1csc(NC(=O)c2cccnc2SC)n1 [Compound 18, N-(4-(4′-Cyano-4-methoxy-[1,1′-biphenyl]-3-yl)thiazol-2-yl)-2-(methylthio)nicotinamide]",,1.73,> 40 µM
"CSc1ncccc1C(=O)Nc1nc(-c2cc(F)cc(-c3ccc(C#N)cc3)c2)cs1 [Compound 19, N-(4-(4′-Cyano-5-fluoro-[1,1′-biphenyl]-3-yl)thiazol-2-yl)-2-(methylthio)nicotinamide]",0.19 µM,6.1,> 30 µM
"COC(=O)C12CC(C(=O)Nc3nc(-c4cccc(Nc5ccc(C#N)cc5)c4)cs3)(C1)C2 [Compound 43, Methyl 3-((4-(3-((4-cyanophenyl)amino)phenyl)thiazol-2-yl)carbamoyl)bicyclo[1.1.1]pentane-1-carboxylate]",10.1 µM,0.74,13 µM
"CC(C)(C)c1cnc(C(=O)Nc2nc(-c3cccc(-c4ccc(C#N)cc4)c3)cs2)nc1 [Compound 8, 5-(Tert-butyl)-N-(4-(4′-cyano-[1,1′-biphenyl]-3-yl)thiazol-2-yl)pyrimidine-2-carboxamide]",,< 1,> 40 µM
"CC(C)(C)c1ccc(C(=O)Nc2nc(-c3cccc(N4CCNCC4)c3)cs2)cc1 [Compound 30, 4-(Tert-Butyl)-N-(4-(3-(piperazin-1-yl)phenyl)thiazol-2-yl)benzamide]",,5.57,4.1 µM
"COC(=O)c1cc(-c2ccc(C#N)cc2)cc(-c2csc(NC(=O)c3cccnc3SC)n2)c1 [Compound 20, Methyl 4′-cyano-5-(2-(2-(methylthio)nicotinamido)thiazol-4-yl)-[1,1′-biphenyl]-3-carboxylate]",,3.23,17.6 µM
"CSc1ncccc1C(=O)Nc1nc(-c2cccc(-n3ccnc3)c2)cs1 [Compound 29, N-(4-(3-(1H-imidazol-1-yl)phenyl)thiazol-2-yl)-2-(methylthio)nicotinamide]",0.27 µM,1.39,> 40 µM
"CSc1ncccc1C(=O)Nc1nc(-c2cncc(-c3ccc(C#N)cc3)c2)cs1 [Compound 12, N-(4-(5-(4-Cyanophenyl)pyridin-3-yl)thiazol-2-yl)-2-(methylthio)nicotinamide]",,< 1,> 40 µM
"CC(C)(C)c1ccc(C(=O)Nc2nc(-c3cccc(-c4ccc(C#N)cc4)c3)cs2)cc1 [Compound 9, 4-(Tert-butyl)-N-(4-(4′-cyano-[1,1′-biphenyl]-3-yl)thiazol-2-yl)benzamide]",0.28 µM,4.68,> 40 µM
